Patent publication US20170334899A1, “AMINO-SUBSTITUTED ISOTHIAZOLES” (Bayer Pharma Aktiengesellschaft, priority 2014, published 2017)

Biological target: T1, human kinase Mps-1 (Homo sapiens, UniProt P33981)
T1 construct: N-terminally GST-tagged human full length recombinant Mps-1 kinase; GST (N); purchased Invitrogen, Karslruhe, Germany PV4071
T1 sequence (P33981 1-857): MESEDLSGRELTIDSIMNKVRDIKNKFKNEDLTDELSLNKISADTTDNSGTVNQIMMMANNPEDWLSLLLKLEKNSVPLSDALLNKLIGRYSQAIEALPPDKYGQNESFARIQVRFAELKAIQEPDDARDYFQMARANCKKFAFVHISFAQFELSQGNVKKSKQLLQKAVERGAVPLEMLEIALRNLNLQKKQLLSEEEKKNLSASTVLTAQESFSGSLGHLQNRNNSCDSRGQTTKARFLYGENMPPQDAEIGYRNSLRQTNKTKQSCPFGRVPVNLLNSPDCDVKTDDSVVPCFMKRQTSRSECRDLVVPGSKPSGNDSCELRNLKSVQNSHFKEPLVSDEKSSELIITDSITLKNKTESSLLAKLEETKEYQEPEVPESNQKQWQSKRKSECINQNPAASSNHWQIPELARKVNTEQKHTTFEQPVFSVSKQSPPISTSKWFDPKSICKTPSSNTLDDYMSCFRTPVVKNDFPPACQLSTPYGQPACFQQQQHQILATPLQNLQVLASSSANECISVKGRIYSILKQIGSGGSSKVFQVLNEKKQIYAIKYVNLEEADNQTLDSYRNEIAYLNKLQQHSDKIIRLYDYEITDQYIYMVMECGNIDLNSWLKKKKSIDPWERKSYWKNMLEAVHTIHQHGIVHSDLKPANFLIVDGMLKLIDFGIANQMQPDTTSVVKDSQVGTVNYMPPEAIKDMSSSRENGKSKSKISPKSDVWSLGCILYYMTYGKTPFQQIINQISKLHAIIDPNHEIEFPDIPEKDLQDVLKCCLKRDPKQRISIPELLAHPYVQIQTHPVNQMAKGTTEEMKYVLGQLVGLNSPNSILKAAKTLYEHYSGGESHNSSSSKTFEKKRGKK
Assay: Mps-1 kinase assay (TR-FRET)
Format: biochemical
Settings: Mps-1 TR-FRET kinase assay; avg; read-out: Mps1 avg (IC50 [mol/l])
In short: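 Inhibition normalised between uninhibited reaction (0%) and enzyme-free wells (100%), using the blank-corrected TR-FRET 665/620 nm ratio after EDTA stop. Reaction: ~0.5 nM GST-Mps-1 full length, 10 μM ATP, 1 μM biotin-peptide, 60 min at 22 °C, after 15 min compound pre-binding, pH 7.7.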

Row | IC50 [µM] | SMILES
1 | > 20 | CC(=O)Nc1ccc(NC(=O)c2c(C)nsc2Nc2ccc(C#N)cn2)cn1 [Example 435, N-(6-Acetamidopyridin-3-yl)-5-[(5-cyanopyridin-2-yl)amino]-3-methyl-1,2-thiazole-4-carboxamide]
2 | > 20 | Cc1nsc(Nc2cnc(C(F)(F)F)cn2)c1C(=O)Nc1ccc(OC[C@H]2CCN(CC(F)(F)F)C2)nc1 [Example 404, 3-Methyl-N-(6-{[(3S)-1-(2,2,2-trifluoroethyl)pyrrolidin-3-yl]methoxy}pyridin-3-yl)-5-{[5-(trifluoromethyl)pyrazin-2-yl]amino}-1,2-thiazole-4-carboxamide]
3 | > 20 | Cc1nsc(Nc2cnc(C(F)(F)F)cn2)c1C(=O)Nc1ccc(OCCN(C)C(=O)OC(C)(C)C)nc1 [Example 429, tert-Butyl methyl{2-[(5-{[(3-methyl-5-{[5-(trifluoromethyl)pyrazin-2-yl]amino}-1,2-thiazol-4-yl)carbonyl]amino}pyridin-2-yl)oxy]ethyl}carbannate]
4 | ≥ 20 | Cc1nsc(Nc2cc(C#N)ccn2)c1C(=O)Nc1ccc(OC2CCCNC2)nc1 (stereo not drawn) [Example 35, 5-[(4-Cyanopyridin-2-yl)amino]-3-methyl-N-[6-(piperidin-3-yloxy)pyridin-3-yl]-1,2-thiazole-4-carboxamide]
5 | ≥ 20 | Cc1nsc(Nc2cnc3ccccc3n2)c1C(=O)Nc1cccc(C(=O)N2CCN(C(=O)OC(C)(C)C)CC2)c1 [Example 55, tert-Butyl 4-[3-({[3-methyl-5-(quinoxalin-2-ylamino)-1,2-thiazol-4-yl]carbonyl}amino)-benzoyl]piperazine-1-carboxylate]
6 | ≥ 20 | Cc1nsc(Nc2cc(C#N)ccn2)c1C(=O)Nc1ccc(OCCCNC(=O)OC(C)(C)C)nc1 [Example 43, tert-Butyl [3-({5-[({5-[(4-cyanopyridin-2-yl)amino]-3-methyl-1,2-thiazol-4-yl}-carbonyl)amino]pyridin-2-yl}oxy)propyl]carbamate]
7 | ≥ 20 | Cc1nsc(Nc2cnc3ccccc3n2)c1C(=O)Nc1ccc(OCCCNC(=O)OC(C)(C)C)nc1 [Example 42, tert-Butyl (3-{[5-({[3-methyl-5-(quinoxalin-2-ylamino)-1,2-thiazol-4-yl]carbonyl}-amino)pyridin-2-yl]oxy}propyl)carbamate]
8 | ≥ 20 | Cc1nsc(Nc2ccc(C#N)cn2)c1C(=O)Nc1ccc(OC2CCCNC2)nc1 (stereo not drawn) [Example 37, 5-[(5-Cyanopyridin-2-yl)amino]-3-methyl-N-[6-(piperidin-3-yloxy)pyridin-3-yl]-1,2-thiazole-4-carboxamide]
9 | ≥ 20 | Cc1nsc(Nc2nc3c(C(F)(F)F)cccc3s2)c1C(=O)Nc1ccc(OCCO)nc1 [Example 2, N-[6-(2-Hydroxyethoxy)pyridin-3-yl]-3-methyl-5-{[4-(trifluoromethyl)-1,3-benzo-thiazol-2-yl]amino}-1,2-thiazole-4-carboxamide]
10 | > 20 | Cc1nsc(Nc2ccc(C#N)cn2)c1C(=O)Nc1ccc(Nc2ccc(F)c(F)c2)nc1 [Example 433, 5-[(5-Cyanopyridin-2-yl)amino]-N-{6-[(3,4-difluorophenyl)amino]pyridin-3-yl}-3-methyl-1,2-thiazole-4-carboxamide]
11 | ≥ 20 | Cc1nsc(Nc2cnc3ccccc3n2)c1C(=O)Nc1cccc(C(=O)N[C@H](C(=O)OC(C)(C)C)[C@@H](C)OC(C)(C)C)c1 [Example 57, tert-Butyl O-tert-butyl-N-[3-({[3-methyl-5-(quinoxalin-2-ylamino)-1,2-thiazol-4 yl]carbonyl}amino)-benzoyl]threoninate]
12 | ≥ 20 | Cc1nsc(Nc2cnc(C(F)(F)F)cn2)c1C(=O)Nc1ccc(F)c(OCCCNC(=O)C(F)(F)F)c1 [Example 427, N-(4-Fluoro-3-{3-[(trifluoroacetyl)amino]propoxy}phenyl)-3-methyl-5-{[5-(trifluoro-methyl)pyrazin-2-yl]amino}-1,2-thiazole-4-carboxamide]
13 | ≥ 20 | Cc1nsc(Nc2cnccn2)c1C(=O)Nc1ccc(OCCCN)nc1 [Example 48, N-[6-(3-Aminopropoxy)pyridin-3-yl]-3-methyl-5-(pyrazin-2-ylamino)-1,2-thiazole-4-carboxamide]
14 | ≥ 20 | Cc1nsc(Nc2ccc(C#N)cn2)c1C(=O)Nc1ccc(OCCCNC(=O)OC(C)(C)C)nc1 [Example 46, tert-Butyl [3-({5-[({5-[(5-cyanopyridin-2-yl)amino]-3-methyl-1,2-thiazol-4-yl}-carbonyl)amino]pyridin-2-yl}oxy)propyl]carbamate]
15 | ≥ 20 | Cc1nsc(Nc2cc(C#N)ccn2)c1C(=O)Nc1ccc(OCCCNCC(F)F)nc1 [Example 45, 5-[(4-Cyanopyridin-2-yl)amino]-N-(6-{3-[(2,2-difluoroethyl)amino]propoxy}pyridin-3-yl)-3-methyl-1,2-thiazole-4-carboxamide]
